From the supplement of paper PMC10307832

Assays:
Assay in all cases: relative viability (nuclei count vs DMSO), 5 days (fraction); higher = more cells survive
Dovitinib + Lapatinib = compound: CN1CCN(c2ccc3nc(-c4c(N)c5c(F)cccc5[nH]c4=O)[nH]c3c2)CC1 [Dovitinib] + CS(=O)(=O)CCNCc1ccc(-c2ccc3ncnc(Nc4ccc(OCc5cccc(F)c5)c(Cl)c4)c3c2)o1 [Lapatinib] (partner 2 µM)
Outline: (§1)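 Values are medians from duplicate plates. Each reflects relative viability, defined as the nuclei count of treated wells over that of vehicle wells. Lung cancer cell lines in 1536-well plates were pin-tool dosed one day after seeding with one drug alone or with a fixed anchor-drug dose plus five library-drug doses (not always all listed) in √10 steps, then fixed, stained and imaged at 4× after 5 days.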

Dovitinib + AZD7762 = compound: CN1CCN(c2ccc3nc(-c4c(N)c5c(F)cccc5[nH]c4=O)[nH]c3c2)CC1 [Dovitinib] + NC(=O)Nc1cc(-c2cccc(F)c2)sc1C(=O)N[C@H]1CCCNC1 [AZD7762] (partner 0.2 µM)
Outline: as §1

Dovitinib + Decitabine = compound: CN1CCN(c2ccc3nc(-c4c(N)c5c(F)cccc5[nH]c4=O)[nH]c3c2)CC1 [Dovitinib] + Nc1ncn([C@H]2C[C@H](O)[C@@H](CO)O2)c(=O)n1 [Decitabine] (partner 2 µM)
Outline: as §1

Dovitinib + Olaparib = compound: CN1CCN(c2ccc3nc(-c4c(N)c5c(F)cccc5[nH]c4=O)[nH]c3c2)CC1 [Dovitinib] + O=C(c1cc(Cc2n[nH]c(=O)c3ccccc23)ccc1F)N1CCN(C(=O)C2CC2)CC1 [Olaparib] (partner 8 µM)
Outline: as §1

| Cell Line | relative viability (Dovitinib + Lapatinib; first compound 0.02 µM) | relative viability (Dovitinib + Lapatinib; first compound 0.06325 µM) | relative viability (Dovitinib + Lapatinib; first compound 0.2 µM) | relative viability (Dovitinib + Lapatinib; first compound 0.6325 µM) | relative viability (Dovitinib + Lapatinib; first compound 2 µM) | relative viability (Dovitinib + AZD7762; first compound 0.02 µM) | relative viability (Dovitinib + AZD7762; first compound 0.06325 µM) | relative viability (Dovitinib + AZD7762; first compound 0.2 µM) | relative viability (Dovitinib + AZD7762; first compound 0.6325 µM) | relative viability (Dovitinib + AZD7762; first compound 2 µM) | relative viability (Dovitinib + Decitabine; first compound 0.02 µM) | relative viability (Dovitinib + Decitabine; first compound 0.06325 µM) | relative viability (Dovitinib + Decitabine; first compound 0.2 µM) | relative viability (Dovitinib + Decitabine; first compound 0.6325 µM) | relative viability (Dovitinib + Decitabine; first compound 2 µM) | relative viability (Dovitinib + Olaparib; first compound 0.02 µM) | relative viability (Dovitinib + Olaparib; first compound 0.06325 µM) | relative viability (Dovitinib + Olaparib; first compound 0.2 µM) | relative viability (Dovitinib + Olaparib; first compound 0.6325 µM) | relative viability (Dovitinib + Olaparib; first compound 2 µM) |
| --- | --- | --- | --- | --- | --- | --- | --- | --- | --- | --- | --- | --- | --- | --- | --- | --- | --- | --- | --- | --- |
| LC-2-ad | 0.772 | 0.962 | 1.04 | 1.02 | 0.686 | 0.842 | 0.835 | 0.819 | 0.883 | 0.88 | 0.777 | 0.815 | 0.711 | 0.795 | 0.774 | 0.691 | 0.666 | 0.734 | 0.775 | 0.741 |
| LCLC-97TM1 | 0.835 | 0.752 | 1.02 | 0.602 | 1.03 | 0.247 | 0.239 | 0.298 | 0.395 | 0.315 | 0.188 | 0.118 | 0.203 | 0.217 | 0.206 | 0.371 | 0.443 | 0.369 | 0.364 | 0.255 |
| LK-2 | 0.878 | 0.914 | 0.858 | 0.83 | 0.709 | 0.402 | 0.549 | 0.308 | 0.408 | 0.274 | 0.267 | 0.333 | 0.295 | 0.384 | 0.268 | 0.738 | 0.818 | 0.676 | 0.935 | 0.739 |
| LOU-NH91 | 0.794 | 0.675 | 0.717 | 0.858 | 0.726 | 0.783 | 0.736 | 0.707 | 0.778 | 0.783 | 0.817 | 0.812 | 0.817 | 0.816 | 0.813 | 0.94 | 0.922 | 0.93 | 0.907 | 0.948 |
| LU99A | 0.943 | 0.985 | 1.08 | 0.937 | 0.922 | 0.294 | 0.469 | 0.358 | 0.277 | 0.387 | 0.759 | 0.762 | 0.965 | 0.981 | 0.904 | 0.256 | 0.279 | 0.275 | 0.276 | 0.281 |
| LXF-289 | 0.813 | 0.904 | 0.88 | 0.867 | 0.873 | 1.07 | 1.06 | 1.07 | 1.13 | 1.05 | 0.438 | 0.402 | 0.391 | 0.372 | 0.359 | 0.974 | 1.08 | 1.07 | 1.1 | 0.976 |
| NCI-H23 | 1.02 | 1.09 | 1.05 | 1.13 | 1.17 | 0.287 | 0.233 | 0.23 | 0.275 | 0.377 | 0.309 | 0.329 | 0.346 | 0.284 | 0.291 | 0.271 | 0.314 | 0.333 | 0.298 | 0.338 |
| NCI-H322M | 0.5 | 0.53 | 0.587 | 0.657 | 0.57 | 0.555 | 0.738 | 0.725 | 0.541 | 0.398 | 0.667 | 0.692 | 0.746 | 0.737 | 0.705 | 0.727 | 0.697 | 0.74 | 0.858 | 0.881 |
| NCI-H358 | 0.507 | 0.417 | 0.446 | 0.492 | 0.438 | 0.483 | 0.518 | 0.444 | 0.544 | 0.517 | 0.237 | 0.214 | 0.247 | 0.238 | 0.206 | 0.621 | 0.658 | 0.619 | 0.543 | 0.606 |
| NCI-H460 | 0.913 | 1.05 | 1 | 0.878 | 1.03 | 0.611 | 0.662 | 0.54 | 0.61 | 0.556 | 0.464 | 0.518 | 0.456 | 0.494 | 0.432 | 0.372 | 0.488 | 0.403 | 0.426 | 0.411 |
| NCI-H596 | 1.05 | 1.13 | 1.14 | 0.894 | 1 | 1.17 | 1.09 | 1 | 1.03 | 1.1 | 1.09 | 1.01 | 0.893 | 0.985 | 1.14 | 0.672 | 0.688 | 0.65 | 0.687 | 0.627 |
| NCI-H647 | 1.11 | 1.33 | 1.21 | 1.06 | 0.755 | 0.42 | 0.404 | 0.493 | 0.522 | 0.398 | 0.402 | 0.438 | 0.444 | 0.303 | 0.387 | 0.578 | 0.538 | 0.5 | 0.418 | 0.675 |
| NCI-H650 | 0.91 | 0.819 | 0.784 | 0.896 | 1.12 | 1.05 | 1.35 | 0.951 | 1.08 | 1 | 0.29 | 0.309 | 0.331 | 0.333 | 0.279 | 0.348 | 0.388 | 0.391 | 0.414 | 0.429 |
| NCI-H727 | 0.904 | 0.629 | 0.673 | 0.882 | 0.91 | 0.639 | 0.536 | 0.597 | 0.637 | 0.555 | 0.824 | 0.685 | 0.884 | 1.03 | 0.926 | 0.584 | 0.72 | 0.719 | 0.679 | 0.674 |
| NCI-H838 | 0.907 | 1.11 | 1.05 | 0.919 | 0.97 | 0.864 | 0.979 | 0.912 | 0.986 | 0.96 | 0.458 | 0.452 | 0.529 | 0.495 | 0.46 | 0.738 | 0.733 | 0.755 | 0.745 | 0.763 |
| NCI-H1355 | 0.977 | 0.945 | 0.984 | 1.02 | 1.13 | 0.695 | 0.745 | 0.746 | 0.703 | 0.727 | 0.363 | 0.351 | 0.371 | 0.336 | 0.371 | 0.792 | 0.762 | 0.717 | 0.723 | 0.754 |
